{"source": "patent US20060281735A1", "about": "“Antipsychotic combination therapies and compositions of an alpha-2 adrenergic receptor antagonist and an atypical antipsychotic neuroleptic” (priority 2002, published 2006)", "key": {"α2 receptor": {"target": "α2 receptor", "conditions": "idazoxan; stated with Litman et al. 1996; cited from earlier work"}, "α2 autoreceptors": {"tested_on": "α2 autoreceptors", "conditions": "presynaptic level; antagonism of clonidine; cited from earlier work"}, "α2 adrenoreceptors": {"tested_on": "α2 adrenoreceptors", "conditions": "binding studies; cited from earlier work"}, "Wistar rats": {"tested_on": "Wistar rats", "experiment": "Conditioned avoidance response (CAR) behavior in rats", "type": "in vivo", "conditions": "rat CAR; 2.5 mg/kg with idazoxan versus about 5 mg/kg alone", "source_text": "Adult, male Wistar rats, 200-225 g (B & K Universal, Sollentuna, Sweden) were used. The animals were housed under standard laboratory conditions, on a reversed light/dark cycle (lights off 08:00 am), and allowed 1 week of adaptation to laboratory conditions before being used in experiments. Food and water were available ad libitum.\nRats were trained and tested in a conventional, manually operated two-way active avoidance (shuttlebox) apparatus connected to a high resistance power supply. The box was divided into two compartments of equal size by a partition with one opening. Upon presentation of the 80 dB white noise conditioned stimulus (CS), the animals had 10 seconds to move from one compartment of the shuttlebox into the other. If the rat remained in the same compartment for more than 10 seconds, an intermittent electric shock (approx. 0.2 mA of 0.5-sec duration; intershock interval 2.5 sec), the unconditioned stimulus (UCS), was presented in the grid floor until an escape was performed. […] Intertrial intervals varied at random between 20 and 40 seconds. The following variables were recorded: avoidance (response to CS within 10 sec); escape (response to CS+UCS); escape failures (failure to respond); and intertrial crosses. The animals were trained for 3 consecutive days. Training sessions were run over 15 minutes. […]"}, "[1]": {"tested_on": "α2-adrenergic receptor versus D2 receptor", "conditions": "literature; cited from earlier work"}, "D2 dopamine receptor": {"target": "T1, D2 dopamine receptor (Homo sapiens, UniProt P14416)", "T1 construct": "In vivo D2 occupancy can be determined using finctional brain imaging technologies such as Positron Emission Tomography (PET); host or cells: brain of treated patients, in vivo imaging", "T1 sequence (P14416 whole entry)": "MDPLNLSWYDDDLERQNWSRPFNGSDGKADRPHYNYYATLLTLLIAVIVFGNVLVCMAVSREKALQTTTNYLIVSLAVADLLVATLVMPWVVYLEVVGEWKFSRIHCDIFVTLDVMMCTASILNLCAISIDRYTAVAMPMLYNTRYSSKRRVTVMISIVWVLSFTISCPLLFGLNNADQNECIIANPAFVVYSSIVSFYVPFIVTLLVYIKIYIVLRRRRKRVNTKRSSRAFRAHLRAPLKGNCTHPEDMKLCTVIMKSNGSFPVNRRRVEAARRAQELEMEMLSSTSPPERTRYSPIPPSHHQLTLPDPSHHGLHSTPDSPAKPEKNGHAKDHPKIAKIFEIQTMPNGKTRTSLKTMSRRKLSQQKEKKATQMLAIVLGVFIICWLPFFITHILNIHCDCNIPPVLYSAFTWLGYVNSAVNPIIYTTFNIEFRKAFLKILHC", "conditions": "at effective antipsychotic treatment; literature; cited from earlier work"}}, "data": [{"smiles": "c1ccc2c(c1)OCC(C1=NCCN1)O2", "note": "(racemic) [idazoxan, ±-2-(1,4-benzodioxan-2-yl)-d-imidazoline]", "values": [{"measurement": "Ki", "setting": "α2 receptor", "result": "~0.03", "unit": "µM"}]}, {"smiles": "c1ccc2c(c1)OCC(C1=NCCN1)O2", "note": "(single isomer, unassigned; (+)) [(+)-idazoxan]", "values": [{"measurement": "Affinity towards the α2 autoreceptors, times higher than (−) idazoxan", "setting": "α2 autoreceptors", "result": 40, "unit": "times"}, {"measurement": "Potency in inhibiting p-[3H]aminoclonidine binding, times more potent than the other enantiomer", "setting": "α2 adrenoreceptors", "result": "7-8 times"}]}, {"smiles": "Cc1cc2c(s1)Nc1ccccc1N=C2N1CCN(C)CC1", "note": "[olanzapine]", "values": [{"measurement": "Reduction of olanzapine dose required for effective antipsychotic effect through adjunct idazoxan", "setting": "Wistar rats", "result": "~50", "unit": "%"}]}, {"smiles": "OCCOCCN1CCN(C2=Nc3ccccc3Sc3ccccc32)CC1", "note": "[quetiapine]", "values": [{"measurement": "Fold less affinity for the α2 adrenergic receptor than for the dopamine D2 receptor", "setting": "[1]", "result": "6-16 fold"}]}, {"smiles": "Cc1nc2n(c(=O)c1CCN1CCC(c3noc4cc(F)ccc34)CC1)CCCC2", "note": "[risperidone]", "values": [{"measurement": "In vivo D2 occupancy", "setting": "D2 dopamine receptor", "result": "≥ 70", "unit": "%"}, {"measurement": "Fold less affinity for the α2 adrenergic receptor than for the dopamine D2 receptor", "setting": "[1]", "result": "2-16 fold"}]}, {"smiles": "O=C1Cc2cc(CCN3CCN(c4nsc5ccccc45)CC3)c(Cl)cc2N1", "note": "[ziprasidone]", "values": [{"measurement": "Fold less affinity for the α2 adrenergic receptor than for the dopamine D2 receptor", "setting": "[1]", "result": 100, "unit": "fold"}]}]}
